Test results: PMC5382325, “Rapid Screening of Potential Phosphodiesterase Inhibitors from the Roots of Ilex pubescens Hook. et Arn. Using a Combination of Ultrafiltration and LC–MS” (Evidence-based Complementary and Alternative Medicine : eCAM, 2017)
Several values for one entry are separate records, joined by “and”; a condition that tells them apart may be missing. Equal entries are not always repeated. Where two headings read alike, the source gives them in different places.

Experiments:
[1] = biological target: Recombinant human PDE5A (Homo sapiens, UniProt O76074); assay: PDE inhibition assay against PDE5A (Cyclic Nucleotide Phosphodiesterase Assay Kit, spectrophotometric); type: biochemical; conditions: in vitro; for IC50: read-out: Inhibitory activity (IC50) PDE5A
[2] = biological target: T1, Phosphodiesterase I (PDEI) from Crotalus adamanteus venom (Crotalus adamanteus, UniProt J3SEZ3); type: binding
[3] = biological target: T1, Phosphodiesterase I (PDEI) from Crotalus adamanteus venom; type: biochemical; conditions: read-out: Inhibitory activity (IC50) PDEI

T1 sequence (J3SEZ3 24-851 limits assumed): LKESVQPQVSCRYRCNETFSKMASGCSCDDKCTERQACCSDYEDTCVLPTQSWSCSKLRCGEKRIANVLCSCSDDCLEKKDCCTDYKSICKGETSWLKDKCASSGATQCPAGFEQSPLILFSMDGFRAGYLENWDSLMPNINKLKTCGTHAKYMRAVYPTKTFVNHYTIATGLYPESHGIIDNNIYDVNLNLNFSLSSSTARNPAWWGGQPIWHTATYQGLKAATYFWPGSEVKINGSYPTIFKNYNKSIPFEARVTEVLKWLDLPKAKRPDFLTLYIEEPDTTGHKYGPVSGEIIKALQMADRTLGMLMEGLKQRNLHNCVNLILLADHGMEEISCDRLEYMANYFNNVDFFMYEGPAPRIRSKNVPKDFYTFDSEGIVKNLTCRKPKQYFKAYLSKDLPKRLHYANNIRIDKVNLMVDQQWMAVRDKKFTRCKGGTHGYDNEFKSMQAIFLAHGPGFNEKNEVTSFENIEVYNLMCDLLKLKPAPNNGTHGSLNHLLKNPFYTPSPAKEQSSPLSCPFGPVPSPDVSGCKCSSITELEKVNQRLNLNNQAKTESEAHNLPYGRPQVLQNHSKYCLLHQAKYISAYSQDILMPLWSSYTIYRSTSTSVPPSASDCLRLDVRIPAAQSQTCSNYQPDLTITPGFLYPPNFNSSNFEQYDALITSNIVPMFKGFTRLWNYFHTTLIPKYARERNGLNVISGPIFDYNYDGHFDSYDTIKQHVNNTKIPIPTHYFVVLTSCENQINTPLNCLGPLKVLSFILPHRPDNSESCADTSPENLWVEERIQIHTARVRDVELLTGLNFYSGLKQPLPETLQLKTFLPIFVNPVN

SMILES	IC50 [1] [µM]	Enhancement factor with PDEI [2]	IC50 [3] [µM]	Binding to PDEI (in words) [2]	Enhancement factor with PDEI ([2]; n = 3)	Activity against PDE5A (in words) [1]
C[C@H]1CC[C@]2(C(=O)O)CC[C@]3(C)C(=CC[C@@H]4[C@@]5(C)CC[C@H](O[C@@H]6OC[C@@H](O)[C@H](O)[C@H]6O[C@@H]6O[C@H](CO)[C@@H](O)[C@H](O)[C@H]6O)C(C)(C)[C@@H]5CC[C@]43C)[C@@H]2[C@]1(C)O [Ilexsaponin B1 (10), Ilexsaponin B1]	1800	9.20 ± 0.62% and 15.54 ± 0.21%	854	–	–	–
C[C@@H]1O[C@@H](O[C@H]2[C@H](O[C@H]3[C@H](O[C@H]4CC[C@]5(C)[C@H]6CC=C7[C@H]8[C@](C(=O)O)(CC[C@H](C)[C@@]8(C)O)CC[C@@]7(C)[C@]6(C)CC[C@H]5C4(C)C)OC[C@@H](O)[C@@H]3O)O[C@H](CO)[C@@H](O)[C@@H]2O)[C@H](O)[C@H](O)[C@H]1O [Ilexsaponin B2 (8), Ilexsaponin B2]	48.8	28.73 ± 0.55% and 41.85 ± 0.86%	478	strongest PDEI ligand	–	–
O=C(C=Cc1ccc(O)c(O)c1)OC1CC(O)(C(=O)O)CC(O)C1OC(=O)C=Cc1ccc(O)c(O)c1 (centres unmarked) [Isochlorogenic acid B (3), Isochlorogenic acid B]	193	–	–	–	19.15 ± 0.77% and 25.90 ± 1.30%	–
C[C@@H]1CC[C@]2(C(=O)O)CC[C@]3(C)C(=CCC4[C@@]5(C)CC[C@H](O)[C@](C)(C(=O)O)C5CC[C@]43C)C2[C@]1(C)O (some centres unmarked) [Ilexgenin A (11), Ilexgenin A]	177	–	–	–	23.08 ± 0.44% and 30.82 ± 0.31%	–
C[C@@H]1CC[C@]2(C(=O)OC3OC(CO)C(O)C(O)C3O)CC[C@]3(C)C(=CCC4[C@@]5(C)CC[C@H](O)[C@](C)(C(=O)O)C5CC[C@]43C)C2[C@]1(C)O (some centres unmarked) [Ilexsaponin A1(9), Ilexsaponin A1]	22.4	–	–	low binding efficiency	11.68 ± 0.31% and 18.59 ± 0.65%	–
O=C(C=Cc1ccc(O)c(O)c1)OC1CC(O)(C(=O)O)CC(O)C1OC(=O)C=Cc1ccc(O)c(O)c1 (centres unmarked) [Isochlorogenic acid C (5), Isochlorogenic acid C]	–	–	–	quite strong bindings to PDEI	26.73 ± 0.41% and 40.03 ± 0.14%	not active
